According to PMC12731536, “Sc(III) Complexes of Pyclen Derivative Ligands as Probes for Hypoxia: Synthesis, Chemical Characterization, ^44Sc‐Radiolabeling, and Preclinical Assessment” (Chemistry (Weinheim an Der Bergstrasse, Germany), 2025):
Where two headings read alike, the source gives them in different places. One block for each compound: values may come before it.

Key:
[1] = cited from earlier work
[2] = Fluoride binding of [Sc(PC2AM^nBu)]^+ (ternary complex stability), 19F NMR titration; assay type: physicochemical; settings: for log K ScLF: stability constant of the ternary fluoride complex, 19F NMR, pH = 5.2, I = 0.15 M NaCl, 25 °C; for K= [Sc(L)F]/[Sc(L)]*[F^-] / log K: titration point: complex 0.0050 M, pH 5.20, I = 0.15 M NaCl, 298 K
Excerpt: Sc(III) is a typical “hard” cation, forming very stable complexes with fluoride anion.^[ [51], [52] ^] […] The formation of the ternary [Sc(PC2AM^nBu)(F)] complex can be followed by […], as two sets of signals (Δδ ∼ 20 Hz) indicate a slow exchange regime on the […] time scale (Figure S16). Measuring the intensities of the free and bound fluoride signals, the stability constant (Eqn. 6) of the [Sc(PC2AM^nBu)(F)] complex (Eqn. 5) can be calculated (Table S1).
(5) [Sc(PC2AM^nBu)]^++F^−⇌[Sc(PC2AM^nBu)(F)] (6) KScLF=ScPC2AM^nBuF/[ScPC2AM^nBu^+]F^−
Table S1. Summary of data used for the calculation of the stability constant, log K[Sc(PC2AM^nBu)(F)] by titration of 0.005M [Sc(PC2AM^nBu)]^+ parent complex with different amounts of F^- (0.005 - 0.01 M concentration range) followed by 376.4 MHz ^19F NMR (I = 0.15 M NaCl, c Sc(PC2AM^nBu) = 5 mM, pH=5.20, T= 298 K).

[3] = Fluoride exchange kinetics, 19F NMR selective magnetization transfer; assay type: physicochemical; settings: complex 5 mM, cF = 10 mM, 14% uncertainty; for k obs ^AB (fluoride exchange, complex site A to free F^− site B): 298 K
Excerpt: Considering ^18F‐labeling and PET application of the [Sc(L)(F)]‐type mixed complexes, one has to check the inertness of the mixed complex against F‐exchange:
(7) [Sc(PC2AM^nBu)F]+∗F^−⇌[Sc(PC2AM^nBu)∗F]+F^− where * is used to indicate typographically the exchanging anion.
The ^19F NMR signal of the mixed complex is somewhat broadened (ν ½ = 150 Hz) due to the relaxation effect of the quadrupole ^45Sc (I = 7/2) nuclei, while the free fluoride is narrow (ν ½ = 4.5 Hz), indicating the absence of chemical exchange on the T 2‐time scale (Figure S24). […] (site A) and free F^− (site B) with k obs ^AB value of 0.6 s^−1 (14% uncertainty), indicating remarkable inertness of the monodentate fluoride (Figure S25). Very recently, 3–4 orders of magnitude larger fluoride exchange rate constants have been published for two Y(III) complexes formed with open‐chain ligands, [Y(EGTA)(F)]^2− and [Y(OBETA)(H2O)(F)]^2−.^[ [56] ^] […] At the same time, the k obs value obtained for the [Sc(OPC2A)(F)] complex (k obs = 16.5 s^−1) is lower by an order of magnitude than that of [Yb(DTMA)(F)]^2+ [ [45] ^] which is likely to be rationalized by the more rigid environment around the M(III)‐F entity.
Figure S25. Selective magnetization transfer (MT) experiment (intensity vs. delay time) curves for [Sc(PC2AAM^nBu)(F)] (c[Sc(PC2AAMnBu)(F)] = 5 mM, cF = 10 mM, pH = 5.50, 298 K). The symbols show the measured intensities: red triangle [Sc(PC2AAM^nBu)(F)] (site A); blue square, free F^- (site B), the curves represent the fitted data (k^obsBA = 1.2 s^-1 (14% uncertainty), k^obsAB = 0.60 s^-1 (14% uncertainty), T1,A= 0.211 s; T1,B = 1.28 s (fixed)).

[4] = design: method as in PMID 24838869; settings: dissociation of [Sc(DOTA)]; cited from earlier work

SMILES: F.O=C([O-])CN(CCN(CC(=O)[O-])CC(=O)O)CC(=O)[O-].[Al+3] [[Al(EDTA)(F)]^2−]
k obs (fluoride exchange) ([1]; estimate, no magnetization effect in MT experiment): greater than or equal to 0.2 s^−1

SMILES: CNC(=O)CN1CCN(CC(=O)NC)CCN(CC(=O)NC)CCN(CC(=O)NC)CC1.[F-].[Yb+3] [[Yb(DTMA)(F)]^2+]
k obs (fluoride exchange) ([1]; literature value): 216 s⁻¹

SMILES: O=C([O-])CN1CCOCCN(CC(=O)[O-])Cc2cccc(n2)C1.[F-].[Sc+3] [[Sc(OPC2A)(F)]]
k obs (fluoride exchange) ([1]; literature value): 16.5 s⁻¹

log K ScLF [2]: 2.5(2)
log K ScLF ([2]; listed as [Sc(PC2AMnBu)(F)]): 2.5
K= [Sc(L)F]/[Sc(L)]*[F^-] ([2]; F^- 0.0050 M): 356.65
log K ([2]; F^- 0.0050 M): 2.55
K= [Sc(L)F]/[Sc(L)]*[F^-] ([2]; F^- 0.0060 M): 508.89
log K ([2]; F^- 0.0060 M): 2.71
K= [Sc(L)F]/[Sc(L)]*[F^-] ([2]; F^- 0.0070 M): 342.86
log K ([2]; F^- 0.0070 M): 2.54
K= [Sc(L)F]/[Sc(L)]*[F^-] ([2]; F^- 0.0080 M): 222.09
log K ([2]; F^- 0.0080 M): 2.35
K= [Sc(L)F]/[Sc(L)]*[F^-] ([2]; F^- 0.0100 M): 150.79
log K ([2]; F^- 0.0100 M): 2.18
SMILES: CCCCNC(=O)CN1CCN(CC(=O)[O-])Cc2cccc(n2)CN(CC(=O)[O-])CC1.[F-].[Sc+3] [[Sc(PC2AM^nBu)(F)]]
k obs ^AB (fluoride exchange, complex site A to free F^− site B) [3]: 0.6 s⁻¹
k obs ^AB (fluoride exchange, complex site A to free F^− site B) ([3]; listed as [Sc(PC2AAM^nBu)(F)]): 0.60 s⁻¹
k^obsBA (fluoride exchange, free F^- site B to complex site A) ([3]; pH = 5.50, 298 K): 1.2 s⁻¹

SMILES: O=C(O)CN1CCN(CC(=O)O)CCN(CC(=O)O)CCN(CC(=O)O)CC1 [DOTA]
k 0 (spontaneous dissociation) [4]: 6e-06 s⁻¹
k 1 (acid‐assisted dissociation) [4]: 4.3e-06 M⁻¹ s⁻¹
